Results reported in patent US7820716B2 (Mai De Ltd, priority 2007, dated 2010).

Columns and labels:
norepinephrine uptake = settings: background statement; cited from earlier work
serotonin uptake = settings: background statement; cited from earlier work
[1] = Stability study of bulk material, stability-indicating HPLC; assay type: physicochemical
Method: Changes are monitored using a stability-indicating HPLC method. Results were calculated by normalized peak area (npa). Degradants are identified by comparison of their relative retention times against impurity standards.

Molecule: CN(C)CC(c1ccc(O)cc1)C1(O)CCCCC1 (stereo not shown) [O-desmethyl venlafaxine]
- norepinephrine uptake (norepinephrine uptake): inhibit
- serotonin uptake (serotonin uptake): inhibit

Molecule: (1-[2-(dimethylamino)-1-(4-phenol)ethyl]-cyclohexanol succinate [Form V]
- polymorph and chemical stability demonstrated ([1]; elevated temperatures and humidity (40° C./75%)): 2 months
- polymorph stability and formation of known and unknown degradants ([1]; stored for over 3 to 6 months under normal conditions of temperature and humidity): stable
